# Where a name gives a salt, the structure may show the parent alone.
# Molecular target: MCH-R1 (Mus musculus, UniProt Q8JZL2)
# Assay: MCH-R1 antagonist activity, comparison of stereoisomers (assay not specified)
# Conditions: qualitative comparison of isomers
# MCH-R1, sequence (Q8JZL2 whole entry): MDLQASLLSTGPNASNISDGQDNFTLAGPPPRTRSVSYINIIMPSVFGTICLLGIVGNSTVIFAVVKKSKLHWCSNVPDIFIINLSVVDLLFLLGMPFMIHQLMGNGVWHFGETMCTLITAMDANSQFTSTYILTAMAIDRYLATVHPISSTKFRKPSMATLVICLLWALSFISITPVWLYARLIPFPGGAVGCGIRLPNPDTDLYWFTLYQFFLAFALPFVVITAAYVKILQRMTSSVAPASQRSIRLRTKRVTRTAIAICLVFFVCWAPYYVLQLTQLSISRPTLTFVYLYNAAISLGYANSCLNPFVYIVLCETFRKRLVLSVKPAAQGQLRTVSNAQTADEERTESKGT
row,SMILES,"MCH-R1 antagonist activity, relative between stereoisomers"
1,"O=c1cc(NC2CC3CCC(C2)N3Cc2ccc3c(c2)OCO3)c2cc(Cl)ccc2o1 (stereo not drawn) [II-122, (exo)-4-(8-Benzo[1,3]dioxol-5-ylmethyl-8-aza-bicyclo[3.2.1]oct-3-ylamino)-6-chloro-chromen-2-one]",more active than the endo isomer II-123
2,"C[C@H](c1ccc2ccccc2c1)N1CCC(Nc2cc(=O)oc3ccc(Cl)cc23)CC1 [II-119, (R)-6-Chloro-4-[1-(1-naphthalen-2-yl-ethyl)-piperdin-4-ylamino]-chromen-2-one]",more active than II-120

# Molecular target: T1, murine MCHR (Mus musculus, UniProt Q8JZL2)
# T1 construct: expressed in transfected cells; host or cells: HEK293
# Assay: Assay for release of intracellular calcium (FLIPR, Fluo-4), inhibition of MCH-induced Ca++ flux
# Type: cell-based
# Conditions: test compound at a dose of 10 μM, HEK293 cells expressing the murine MCHR, read-out: inhibition of MCH (MCH induced Ca++ flux / fluorescence)
# Procedure, shortened: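 HEK293 cells expressing murine MCHR were loaded with Fluo-4AM (2.5 μM) and given compound (40 μM stock in 4% DMSO), with 3 min monitoring for agonism. They were then challenged with mouse MCH (12 nM as added) and FLIPR fluorescence followed 3 min more. % inhibition of MCH-induced Ca++ flux was calculated against baseline and no-compound signals.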
# T1 sequence (Q8JZL2 whole entry): as above
row,SMILES,inhibition at 10 µM
1,"COc1ccc2oc(=O)cc(NC3CCN(Cc4ccccc4)CC3)c2c1 [II-102, 4-(1-Benzyl-piperidin-4-ylamino)-6-methoxy-chromen-2-one trifluoroacetate]",≥ 50%
2,"CCc1ccc2c(c1)c(NC1CCN(Cc3ccc4ccccc4c3)CC1)cc(=O)n2C [Compound V-20, 6-Ethyl-1-methyl-4-(1-naphthalen-2-ylmethyl-piperidin-4-ylamino)-1H-quinolin-2-one]",≥ 50%
3,"CN(C)C(=O)c1c(NC2CCN(Cc3ccc4c(c3)OCO4)CC2)c2cc(Br)ccc2n(C)c1=O [Compound V-42, 4-(1-Benzo[1,3]dioxol-5-ylmethyl-piperidin-4-ylamino)-6-bromo-1-methyl-2-oxo-1,2-dihydro-quinoline-3-carboxylic acid dimethylamide]",≥ 50%
4,"O=c1cc(NC2CCN(Cc3ccc(OCCCN4CCCCC4)cc3)CC2)c2cc(Cl)ccc2o1 [II-49, 6-Chloro-4-{1-[4-(3-piperidin-1-yl-propoxy)-benzyl]-piperidin-4-ylamino}-chromen-2-one; Double TFA Salt]",≥ 50%
5,"COc1ccc2oc(=O)cc(NC3CCN(C/C=C/c4ccccc4)CC3)c2c1 [III-1, 6-Methoxy-4-[1-(3-phenyl-allyl)-piperidin-4-ylamino] chromen-2-one]",≥ 50%
6,"O=c1cc(NC2CCN(Cc3ccc4ccccc4c3)CC2)c2cc(F)cc(F)c2o1 [II-85, 6,8-Difluoro-4-(1-naphthalen-2-ylmethyl-piperidin-4-ylamino)-chromen-2-one]",≥ 50%
7,"COc1ccc2oc(=O)cc(NC3CCN(Cc4ccc5ccccc5c4)CC3)c2c1 [II-19, 6-Methoxy-4-(1-naphthalen-2-ylmethyl-piperidin-4-ylamino)-chromen-2-one trifluoroacetate]",≥ 50%
8,"COc1ccc2oc(=O)cc(NC3CCN(Cc4ccc(C(=O)NCCN5CCCCC5)cc4)CC3)c2c1 [II-69, 4-[4-(6-Methoxy-2-oxo-2H-chromen-4-ylamino)-piperidin-1-ylmethyl]-N-(2-piperidin-1-yl-ethyl)-benzamide; Double TFA Salt]",≥ 50%
9,"Cn1c(=O)cc(NC2CCN(Cc3ccc4ccccc4c3)CC2)c2cc(O)ccc21 [Compound V-46, 6-Hydroxy-1-methyl-4-(1-naphthalen-2-ylmethyl-piperidin-4-ylamino)-1H-quinolin-2-one]",≥ 50%
10,"COc1ccccc1/C=C/CN1CCC(Nc2cc(=O)oc3ccc(C)cc23)CC1 [III-19, 4-{1-[3-(2-Methoxy-phenyl)-allyl]-piperidin-4-ylamino}-6-methyl-chromen-2-one]",≥ 50%

# The remaining lines, values ahead:
row,inhibition at 10 µM,SMILES
1,≥ 50%,"O=c1cc(NC2CCN(C/C=C/c3ccccc3)CC2)c2cc(Cl)ccc2o1 [III-3, 6-Chloro-4-[1-(3-phenyl-allyl)-piperidin-4-ylamino]-chromen-2-one]"
2,≥ 50%,"COc1ccc2oc(=O)cc(NC3CCN(Cc4cccc(C)c4)CC3)c2c1 [II-92, 6-Methoxy-4-[1-(3-methyl-benzyl)-piperidin-4-ylamino]-chromen-2-one trifluoroacetate]"
3,≥ 50%,"N#Cc1c(NC2CCN(Cc3ccc4c(c3)OCO4)CC2)c2cc(Cl)ccc2[nH]c1=O [Compound V-27, 4-(1-Benzo[1,3]dioxol-5-ylmethyl-piperidin-4-ylamino)-6-chloro-2-oxo-1,2-dihydro-quinoline-3-carbonitrile]"
4,≥ 50%,"CC(c1ccc2c(c1)OCO2)N1CCC(Nc2c(C(=O)N(C)C)c(=O)n(C)c3ccc(Cl)cc23)CC1 (stereo not shown) [Compound V-34, 4-[1-(1-Benzo[1,3]dioxol-5-yl-ethyl)-piperidin-4-ylamino]-6-chloro-1-methyl-2-oxo-1,2-dihydro-quinoline-3-carboxylic acid dimethylamide]"
5,≥ 50%,"COc1ccc2oc(=O)cc(NC3CCN(Cc4ccc5c(c4)OC(F)(F)O5)CC3)c2c1 [II-68, 4-[1-(2,2-Difluoro-benzo[1,3]dioxol-5-ylmethyl)-piperidin-4-ylamino]-6-methoxy-chromen-2-one trifluoroacetate]"
6,≥ 50%,"C=Cc1ccc2oc(=O)cc(NC3CCN(Cc4ccc5c(c4)OCCO5)CC3)c2c1 [II-57, 4-{1-(2,3-Dihydrobenzo{1,4}dioxin-6-ylmethyl)-piperidin-4-ylamino}-6-vinyl-chromen-2-one]"
7,≥ 50%,"O=c1cc(NC2CCN(Cc3ccc4ocnc4c3)CC2)c2cc(Cl)ccc2o1 [II-95, 4-{1-Benzooxazol-5-ylmethyl-piperidin-4-ylamino)-6-chloro-chromen-2-one]"
8,≥ 50%,"C[C@H](c1ccc2c(c1)OCO2)N1CCC(Nc2cc(=O)oc3ccc(Cl)cc23)CC1 [II-28, 4-[1-(1-Benzo[1,3]dioxol-5-yl-ethyl)-piperidin-4-ylamino]-6-chloro-chromen-2-one]"
9,≥ 50%,"CC(C)c1ccc2c(c1)c(NC1CCN(Cc3ccc4c(c3)OCO4)CC1)cc(=O)n2C [Compound V-43, 4-(1-Benzo[1,3]dioxol-5-ylmethyl-piperidin-4-ylamino)-6-isopropyl-1-methyl-1H-quinolin-2-one]"
10,≥ 50%,"COc1ccc2oc(=O)cc(NC3CCN(Cc4ccc(C)c(C)c4)CC3)c2c1 [II-29, 4-[1-(3,4-Dimethyl-benzyl)-piperidin-4-ylamino]-6-methoxy-chromen-2-one trifluoroacetate]"
